Twelve molecules from patent publication US20250066348A1, “SMALL MOLECULE INHIBITORS OF UBIQUITIN SPECIFIC PROTEASE 1 (USP1) AND USES THEREOF” (INSILICO MEDICINE IP LIMITED, priority 2021, published 2025) can be followed below.

What is called IC50 is the concentration needed to halve the response being measured.

One assay has as its system MDA-MB-436 cells. Nature of the assay: MDA-MB-436 breast cancer cell proliferation assay (CellTiter-Glo). It is filed as cell-based. Conditions: Homo sapiens, 168 h, 7 days. As to the method: MDA-MB-436 cells were grown in Leibovitz's L-15 medium with 10 μg/ml insulin, 16 μg/ml glutathione, 10% FBS. Cells were passaged at subconfluence after trypsinization and maintained in incubators at 37° C. in a humidified atmosphere with 5% CO2.
Cell proliferation was determined using CellTiter-Glo® Luminescent Cell Viability Assay (Promega, #G7573). MDA-MB-436 cells were seeded in 384-well plates and allowed to attach for 24 h. Compounds were added into 384-well plate by ECHO, and incubated at 37 C° in a humidified atmosphere with 5% CO2. After 7 days, CellTiter-Glo was added into 384 well plates, contents were mixed on an orbital shaker at […] for 2 min before centrifuging the plate for 2 min at 1000 rpm. After incubation at RT for 30 min, luminescence was read on envision.
A general note: ATP-based viability assays read luminescence as a measure of living cells.

In assay [1] the target is T1, Human recombinant USP1/UAF1 (Homo sapiens, UniProt O94782).
T1 construct: purchased R&D E-568-050; host or cells: baculovirus infected Sf21 cells
Nature of the assay: Enzymatic assay, USP1/UAF1 with Ubiquitin Rhodamine 110. It is filed as biochemical. Conditions: 2 nM USP1/UAF1, 500 nM Ubiquitin Rhodamine 110, HEPES buffer pH 8.0, 15 minutes preincubation at RT. As to the method:
Human recombinant USP1/UAF1 expressed in baculovirus infected Sf21 cells were used (R&D, E-568-050). Test compound and/or vehicle was incubated with 2 nM of USP1/UAF1 in modified HEPES buffer pH 8.0 for 15 minutes at RT. The reaction was initiated by addition of 500 nM of Ubiquitin Rhodamine 110 (R&D, U-555-050) for kinetic reading. Slope change of fluorescence intensity was read spectrofluorimetrically at 485 nm/535 nm. Dose response of test compounds or reference compound ML-323 was analyzed by nonlinear regression of GraphPad prism software.

T1 sequence (O94782 whole entry): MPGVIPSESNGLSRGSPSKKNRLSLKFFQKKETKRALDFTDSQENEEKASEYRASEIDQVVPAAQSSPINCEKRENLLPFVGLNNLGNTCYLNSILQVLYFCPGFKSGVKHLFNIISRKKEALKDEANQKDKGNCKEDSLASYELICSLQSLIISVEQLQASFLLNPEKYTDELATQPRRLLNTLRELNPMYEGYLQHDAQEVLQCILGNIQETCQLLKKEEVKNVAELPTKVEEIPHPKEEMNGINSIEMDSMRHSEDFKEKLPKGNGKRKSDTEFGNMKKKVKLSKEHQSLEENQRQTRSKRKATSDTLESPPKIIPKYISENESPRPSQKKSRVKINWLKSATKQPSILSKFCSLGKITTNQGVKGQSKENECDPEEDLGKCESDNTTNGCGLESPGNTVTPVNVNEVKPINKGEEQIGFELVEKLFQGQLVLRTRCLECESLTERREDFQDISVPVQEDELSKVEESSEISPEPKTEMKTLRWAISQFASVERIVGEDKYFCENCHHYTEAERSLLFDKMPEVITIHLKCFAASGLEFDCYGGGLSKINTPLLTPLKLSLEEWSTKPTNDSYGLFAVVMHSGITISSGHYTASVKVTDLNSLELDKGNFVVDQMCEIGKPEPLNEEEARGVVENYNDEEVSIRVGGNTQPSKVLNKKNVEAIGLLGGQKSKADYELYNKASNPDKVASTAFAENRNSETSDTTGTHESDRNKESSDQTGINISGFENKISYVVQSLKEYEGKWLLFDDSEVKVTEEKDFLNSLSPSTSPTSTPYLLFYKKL
T1 sequence (Q8TAF3 whole entry partner): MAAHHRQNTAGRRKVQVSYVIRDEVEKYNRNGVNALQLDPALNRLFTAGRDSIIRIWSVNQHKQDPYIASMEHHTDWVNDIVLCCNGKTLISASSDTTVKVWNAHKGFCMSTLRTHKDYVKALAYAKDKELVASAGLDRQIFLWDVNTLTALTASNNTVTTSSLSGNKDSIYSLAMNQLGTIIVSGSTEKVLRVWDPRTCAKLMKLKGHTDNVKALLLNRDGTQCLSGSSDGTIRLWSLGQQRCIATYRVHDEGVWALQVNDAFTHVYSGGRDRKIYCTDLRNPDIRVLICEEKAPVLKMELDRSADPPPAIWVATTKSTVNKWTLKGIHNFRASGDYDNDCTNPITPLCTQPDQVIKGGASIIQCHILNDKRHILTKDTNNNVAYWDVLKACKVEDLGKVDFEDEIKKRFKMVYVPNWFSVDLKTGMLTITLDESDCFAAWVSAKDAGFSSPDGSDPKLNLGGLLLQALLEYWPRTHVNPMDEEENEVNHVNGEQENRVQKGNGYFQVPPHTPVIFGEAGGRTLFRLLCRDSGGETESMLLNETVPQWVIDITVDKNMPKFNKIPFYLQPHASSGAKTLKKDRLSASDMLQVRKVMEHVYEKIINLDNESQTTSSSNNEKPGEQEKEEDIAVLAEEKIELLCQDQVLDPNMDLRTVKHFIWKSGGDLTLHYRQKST

As to `COc1ncnc(C2CC2)c1-c1cc2c(cn1)cnn2Cc1ccc(-n2nc(C(F)(F)F)cc2C)cc1` [Example 1, 6-(4-cyclopropyl-6-methoxypyrimidin-5-yl)-1-(4-(5-methyl-3-(trifluoromethyl)-1H-pyrazol-1-yl)benzyl)-1H-pyrazolo[4,3-c]pyridine], the half-maximal inhibitory concentration (IC50) in the assay on MDA-MB-436 cells was 50 to 1000 nM; in assay [1], less than 50 nM.
Turning to `COc1ncnc(C2CC2)c1-c1cn2c(Cc3ccc(-n4nc(C(F)(F)F)cc4C)cc3)ncc2cn1` [Example 2, 6-(4-cyclopropyl-6-methoxypyrimidin-5-yl)-3-(4-(5-methyl-3-(trifluoromethyl)-1H-pyrazol-1-yl)benzyl) imidazo[1,5-a]pyrazine], the IC50 (with MDA-MB-436 cells; in assay [1]) was 50 to 1000 nM throughout.
Consider `COc1ncnc(C2CC2)c1-c1cnc2cnn(Cc3ccc(-n4nc(C(F)(F)F)cc4C)cc3)c2n1` [Example 3, 6-(4-cyclopropyl-6-methoxypyrimidin-5-yl)-1-(4-(5-methyl-3-(trifluoromethyl)-1H-pyrazol-1-yl)benzyl)-1H-pyrazolo[3,4-b]pyrazine], for which the IC50 (in the assay with MDA-MB-436 cells; in assay [1]) was 1000 to 10000 nM in each case.
On to `COc1ncnc(C2CC2)c1-c1cc2c(cnn2Cc2ccc(-n3nc(C(F)(F)F)cc3C)cc2)nn1` [Example 4, 6-(4-cyclopropyl-6-methoxypyrimidin-5-yl)-1-(4-(5-methyl-3-(trifluoromethyl)-1H-pyrazol-1-yl)benzyl)-1H-pyrazolo[4,3-c]pyridazine], for which the IC50 in assay [1] lay in the range of 1000 to 10000 nM.
For `COc1ncnc(C2CC2)c1-c1cn2c(Cc3ccc(-n4nc(C(F)(F)F)cc4C)cc3)nnc2cn1` [Example 5, 6-(4-cyclopropyl-6-methoxypyrimidin-5-yl)-3-(4-(5-methyl-3-(trifluoromethyl)-1H-pyrazol-1-yl)benzyl)-[1,2,4]triazolo[4,3-a]pyrazine], the results for the concentration for half-maximal inhibition (IC50) (in the assay on MDA-MB-436 cells; in assay [1]) were greater than 10000 nM and 1000 to 10000 nM, respectively.
As to `COc1ncnc(C2CC2)c1-c1cnc2cnc(Cc3ccc(-n4nc(C(F)(F)F)cc4C)cc3)n2c1` [Example 6, 3-(4-cyclopropyl-6-methoxypyrimidin-5-yl)-6-(4-(5-methyl-3-(trifluoromethyl)-1H-pyrazol-1-yl)benzyl)imidazo[1,5-a]pyrimidine], the concentration for half-maximal inhibition (IC50) in assay [1] was greater than 10000 nM.
Turning to `COc1ncnc(C2CC2)c1-c1ncc2c(=O)n(C)n(Cc3ccc(-n4nc(C(F)(F)F)cc4C)cc3)c2n1` [Example 7, 6-(4-cyclopropyl-6-methoxypyrimidin-5-yl)-2-methyl-1-(4-(5-methyl-3-(trifluoromethyl)-1H-pyrazol-1-yl)benzyl)-1,2-dihydro-3H-pyrazolo[3,4-d]pyrimidin-3-one], the IC50 (in the assay on MDA-MB-436 cells; in assay [1]) was 50 to 1000 nM throughout.
In the case of `COc1ncnc(C2CC2)c1-c1ncc2oc(=O)n(Cc3ccc(-n4nc(C(F)(F)F)cc4C)cc3)c2n1` [Example 8, 5-(4-cyclopropyl-6-methoxypyrimidin-5-yl)-3-(4-(5-methyl-3-(trifluoromethyl)-1H-pyrazol-1-yl)benzyl) oxazolo[4,5-d]pyrimidin-2 (3H)-one], the IC50 (in the assay on MDA-MB-436 cells; in assay [1]) was 50 to 1000 nM throughout.
With `COc1ncnc(C2CC2)c1-c1ncc2[nH]c(=S)n(Cc3ccc(-n4nc(C(F)(F)F)cc4C)cc3)c2n1` [Example 9, 2-(4-cyclopropyl-6-methoxypyrimidin-5-yl)-9-(4-(5-methyl-3-(trifluoromethyl)-1H-pyrazol-1-yl)benzyl)-7,9-dihydro-8H-purine-8-thione], the IC50 (in the assay with MDA-MB-436 cells; in assay [1]) was 50 to 1000 nM each time.
Turning to `COc1ncnc(C2CC2)c1-c1ncc2cnn(CC34C5C6C3C3C4C5C63c3nc(C(F)(F)F)cn3C)c2n1` (stereo not drawn) [Example 10, 6-(4-cyclopropyl-6-methoxypyrimidin-5-yl)-1-((4-(1-methyl-4-(trifluoromethyl)-1H-imidazol-2-yl)cuban-1-yl)methyl)-1H-pyrazolo[3,4-d]pyrimidine], the IC50 (in the assay with MDA-MB-436 cells; in assay [1]) was less than 50 nM each time.
On to `COc1ncnc(C2CC2)c1-c1ncc2cnn(CC34C5C6C3C3C4C5C63c3nc(C(F)(F)F)cn3C(C)C)c2n1` (stereo not drawn) [Example 11, 6-(4-cyclopropyl-6-methoxypyrimidin-5-yl)-1-((4-(1-isopropyl-4-(trifluoromethyl)-1H-imidazol-2-yl)cuban-1-yl)methyl)-1H-pyrazolo[3,4-d]pyrimidine], for which the IC50 (in the assay on MDA-MB-436 cells; in assay [1]) was less than 50 nM each time.
Take `COc1ncnc(C2CC2)c1-c1cc2c(cn1)cnn2Cc1ccc(-n2nc(C(F)(F)F)cc2C)nc1` [Example 12, 6-(4-cyclopropyl-6-methoxypyrimidin-5-yl)-1-((6-(5-methyl-3-(trifluoromethyl)-1H-pyrazol-1-yl)pyridin-3-yl)methyl)-1H-pyrazolo[4,3-c]pyridine]: in assay [1], the 50% inhibitory concentration (IC50) fell in the range of 50 to 1000 nM.
